Measured values taken from patent US20210052882A1, “ENHANCED TREATMENT VOLUME AND SELECTIVE ABLATION USING ELECTROPORATION WITH ADJUVANT CALCIUM” (Virginia Tech Intellectual Properties, Inc., priority 2019, published 2021).
Where “and” joins values, the source holds several entries; their conditions need not be identical. Identical values can stand only once.

Key:
[1] = Properties of solutions (conductivity, osmolarity); format: physicochemical; settings: base 250 mM sucrose, 1 mM MgCl2, 10 mM HEPES, pH 7.2-7.4
Experimental: All solutions consisted of the same base ingredients: 250 mM sucrose, 1 mM MgCl2, and 10 mM HEPES buffer in deionized water with a pH in the range of 7.2-7.4. […] Cell culture media contains things such as serum and antibiotics that may affect results. Finally, fresh solutions were added immediately prior to pulsing. All solutions were adjusted to have a pH between 7.2-7.4.

[2] = test system: U251 malignant glioma cells; assay: H-FIRE ablation (lesion) area in collagen scaffolds, live/dead stain 24 hr after treatment; format: cell-based; settings: for increase of ablation area compared to NaCl control / increase in ablation area compared to NaCl control: H-FIRE 800 V, 80 bursts
Experimental: U251 malignant glioma cells (Sigma Aldrich, 09063001) were maintained at 5% CO2 and 37° C. in Eagle's Minimum Essential Medium (Sigma Aldrich) supplemented with 1% penicillin/streptomycin (Life Technologies), 10% fetal bovine serum (Atlanta Biologicals), 1% non-essential amino acids (Sigma Aldrich) and 1 mM sodium pyruvate (Sigma Aldrich). Cells were routinely passaged at 80-90% confluence. […] PDMS wells were treated with 1% PEI (Acros Organics) for 10 min, 0.1% glutaraldehyde (Fisher Scientific) for 20 min, and then washed twice with deionized water prior to collagen seeding to ensure collagen adhesion during treatment. Commercial rat tail collagen type I (BD Biosciences) was neutralized using a solution of 10× Dulbecco's Modified Eagle Medium (10% total volume, Sigma Aldrich), 1 N NaOH (2% collagen volume, Sigma Aldrich), and 1× Dulbecco's Modified Eagle Medium (Sigma Aldrich) to a final concentration of 5 mg/mL. […] The collagen/cell solution was dispensed into PDMS wells and PDMS tops were used to mold the collagen flat while they polymerized in a cell culture incubator for 20 min. PDMS tops were then removed and cell culture media was added. Collagen scaffolds were maintained in the incubator for 24 hr prior to treatment. […] All solutions consisted of the same base ingredients: 250 mM sucrose, 1 mM MgCl2, and 10 mM HEPES buffer in deionized water with a pH in the range of 7.2-7.4. […] Cell culture media contains things such as serum and antibiotics that may affect results. Finally, fresh solutions were added immediately prior to pulsing. All solutions were adjusted to have a pH between 7.2-7.4. The osmolarity and conductivity of the buffers used are shown in Table 1: In this example, two hollow, stainless-steel needle electrodes (Howard electronics) were inserted into the scaffolds using a custom designed electrode housing. […] H-FIRE pulses were delivered using a high-voltage pulse generator (EPULSUS®-FBM1-5, EnergyPulse Systems, Lda). Voltage waveforms were captured using a high voltage probe and oscilloscope (DPO 2012, Tektronix). […] The pulses delivered were bipolar pulses having a positive pulse duration, inter-pulse delay, and negative pulse duration (see, e.g., FIG. 1B). Inter-pulse delay was kept constant (1 μs) while pulse width was varied (1, 2, 5, 10 μs). […] For reversible threshold experiments, scaffolds were imaged immediately after treatment. To visualize ablations, a live/dead stain was performed to visualize live and dead regions of cells in the scaffold. […] Scaffolds were then washed 2× with PBS prior to imaging using an inverted microscope (DMI 6000B, Leica Microsystems) with a 5× objective. Lesion areas were quantified for each treatment using a MATLAB algorithm. Since 24 h post treatment is sufficient to allow any reversibly electroporated cells to recover (as pore resealing happens on the order of minutes), staining the cells immediately after treatment and 24 h later allows for quantification of both the reversible zone of electroporation and irreversible zones of ablation. […] Scaffolds were then washed twice with PBS prior to imaging using an inverted microscope (DMI 6000B, Leica Microsystems) with a 5× objective, filter cubes, and an EM-CCD camera (Hamamatsu C9100). The appropriate filters were used to image Calcein AM (Ex:460-500, DC: 505, EM: 570-640) and propidium iodide (EX:545/26, DC:565, EM:605/70). […] Scaffolds were then imaged immediately after treatment. […] Reversible electroporation experiments were repeated at least six times. Discrepancies in the number of replicates between conditions were due to bubbles or other defects that may have changed the electric field distribution or prohibited a reliable measurement of ablation area. These scaffolds were excluded from analysis. Two-way ANOVA was used to test for differences in cell death area due to the different applied solutions and pulse waveforms. Tukey post-hoc comparisons were used to examine differences among treatment groups. […]

[3] = test system: U251 malignant glioma cells; assay: Reversible electroporation zone in collagen scaffolds imaged immediately after H-FIRE treatment; format: cell-based; settings: for difference between reversible and irreversible electroporation areas: FIG. 10
Experimental: After pulsing, CaCl2, NaCl, KCl, and CaCl2/NaCl solutions were removed and cell culture media was added to each scaffold. For irreversible threshold experiments, the scaffolds were returned to the incubator for 24 hr prior to live/dead staining. For reversible threshold experiments, scaffolds were imaged immediately after treatment.
To visualize ablations, a live/dead stain was performed to visualize live and dead regions of cells in the scaffold. Scaffolds were incubated with 2 μM Calcein AM and 23 μM propidium iodide in phosphate buffered saline (PBS) for 30 minutes at room temperature. Scaffolds were then washed 2× with PBS prior to imaging using an inverted microscope (DMI 6000B, Leica Microsystems) with a 5× objective. Lesion areas were quantified for each treatment using a MATLAB algorithm. Since 24 h post treatment is sufficient to allow any reversibly electroporated cells to recover (as pore resealing happens on the order of minutes), staining the cells immediately after treatment and 24 h later allows for quantification of both the reversible zone of electroporation and irreversible zones of ablation.
To stain the scaffolds, media was removed and replaced with phosphate buffered saline (PBS) containing 2 μM Calcein AM (Invitrogen) and 23 μM PI (Invitrogen) and incubated at room temperature for 30 min. Scaffolds were then washed twice with PBS prior to imaging using an inverted microscope (DMI 6000B, Leica Microsystems) with a 5× objective, filter cubes, and an EM-CCD camera (Hamamatsu C9100). The appropriate filters were used to image Calcein AM (Ex:460-500, DC: 505, EM: 570-640) and propidium iodide (EX:545/26, DC:565, EM:605/70). To determine the reversible zone of electroporation, treatment followed the same electroporation protocol, but Calcein AM and PI were added to the CaCl2 and NaCl solutions at all steps prior to pulsing. Scaffolds were then imaged immediately after treatment.
Irreversible electroporation experiments were repeated 6-12 times for each condition. Reversible electroporation experiments were repeated at least six times. Discrepancies in the number of replicates between conditions were due to bubbles or other defects that may have changed the electric field distribution or prohibited a reliable measurement of ablation area. These scaffolds were excluded from analysis. Two-way ANOVA was used to test for differences in cell death area due to the different applied solutions and pulse waveforms. Tukey post-hoc comparisons were used to examine differences among treatment groups. Statistical analyses were performed with a confidence level of α=0.05 (MP Pro 14). Results are shown as means±standard deviation.
To investigate how CaCl2 and NaCl treatments affect permeabilization of the cells, the areas for reversible electroporation and their corresponding reversible electric field thresholds were characterized. Reversible electroporation thresholds for H-FIRE treatment have not been extensively characterized, making this work one of the first to quantify reversible thresholds for a range of unexplored pulse durations.

[4] = test system: cells; assay: Toxicity of calcium chloride to cells at the concentrations used; format: cell-based
[5] = test system: cells; settings: cited from earlier work
[6] = 450 V, 1 Hz, 100 μs; 80 pulses for IRE, 8 pulses for ECT; cited from earlier work
[7] = test system: cells; settings: nsPEFs; cited from earlier work
[8] = test system: U251 malignant glioma cells; assay: Electric field threshold for cell death, ablation area mapped to finite element model
Experimental: For analysis, images were separated into two channels (green—Calcein AM, red—PI) and ablation areas for the green channel were analyzed for irreversible thresholds and red channels for reversible electroporation thresholds using a custom algorithm written in MATLAB. In cases where the algorithm was unable to accurately measure ablations, coordinate points from the algorithm outlining the ablation area were used as a guide to manually trace and measure the area in ImageJ. Ablation area measurements were mapped to a finite element model of the experimental setup to determine the corresponding electric field threshold.
Treatments were simulated using the finite element method (COMSOL Multiphysics, Burlington, Mass.) and the electric field and temperature distributions were determined. The mesh was refined until there was <1% change in the electric field and temperature values along a cutline between the electrodes. The mesh consisted of 102,615 total elements. […] From the finite element model of the collagen scaffold, a relationship between lesion area and electric field magnitude is determined by performing numerical integration on the surface of the scaffold for a range of electric field magnitudes (100-3000 V/cm). A curve was constructed and fit to the data using least squares fitting in MATLAB. […] This equation was used to accurately back out the electric field thresholds for each treatment condition without needing to manually determine them using COMSOL.
From the finite element model, it is possible to determine the electric field threshold required for cell death.
Using the finite element model of H-FIRE treatment in the scaffold, the corresponding electric field thresholds for each ablation area were characterized.

[Ca+2].[Cl-].[Cl-] [CaCl2, calcium chloride]
Conductivity ([1]; 1 mM solution): 0.075 ± 0.004 S/m | Osmolarity ([1]; 1 mM solution): 289 mOsm/L | Conductivity ([1]; 5 mM solution): 0.131 S/m | Osmolarity ([1]; 5 mM solution): 300 mOsm/L | increase of ablation area compared to NaCl control ([2]; 1 mM, 1-1-1 waveform): ~2.3 × | increase of ablation area compared to NaCl control ([2]; 1 mM, 2-1-2 waveform): 4.4 × | increase of ablation area compared to NaCl control ([2]; 1 mM, 5-1-5 waveform): 6.1 × | increase of ablation area compared to NaCl control ([2]; 1 mM, 10-1-10 waveform): 3.42 × | increase in ablation area compared to NaCl control ([2]; 5 mM, 1-1-1 waveform): 3.4 × | increase in ablation area compared to NaCl control ([2]; 5 mM, 2-1-2 waveform): 4.37 × | increase in ablation area compared to NaCl control ([2]; 5 mM, 5-1-5 waveform): 5.24 × | increase in ablation area compared to NaCl control ([2]; 5 mM, 10-1-10 waveform): 2.66 × | lesion size compared with an IRE treatment without calcium ([2]; 5 mM, same applied energy, 2, 5 and 10 μs pulse widths): comparable in size or larger | ablation (lesion) sizes, calcium groups versus NaCl groups ([2]; H-FIRE, all pulse patterns): statistically significantly larger | 5 mM CaCl2 areas versus 1 mM CaCl2 areas ([2]; after 24 h, shorter pulse durations): larger | reversible zone larger than the 1 mM NaCl zone ([3]; 1 mM CaCl2, 2-1-2 waveform): 1.56 × | reversible zone larger than the 1 mM NaCl zone ([3]; 1 mM CaCl2, 5-1-5 waveform): 1.7 × | reversible zone larger than the 1 mM NaCl zone ([3]; 1 mM CaCl2, 10-1-10 waveform): 1.42 × | reversible zone larger than the 1 mM NaCl zone ([3]; 5 mM CaCl2, 2-1-2 waveform): 1.66 × | reversible zone larger than the 1 mM NaCl zone ([3]; 5 mM CaCl2, 5-1-5 waveform): 1.73 × | reversible zone larger than the 1 mM NaCl zone ([3]; 5 mM CaCl2, 10-1-10 waveform): 1.46 × | reversible zones larger than irreversible zones ([3]; 2-1-2 waveform, 1 mM): 2.62 × | reversible zones larger than irreversible zones ([3]; 2-1-2 waveform, 5 mM): 1.47 × | reversible zones larger than irreversible zones ([3]; 5-1-5 waveform, 1 mM): 1.67 × | reversible zones larger than irreversible zones ([3]; 5-1-5 waveform, 5 mM): 1.3 × | reversible zones larger than irreversible zones ([3]; 10-1-10 waveform, 1 mM): 1.32 × | reversible zones larger than irreversible zones ([3]; 10-1-10 waveform, 5 mM): 1.59 × | difference between reversible and irreversible electroporation areas [3]: decreased | difference between 1 mM and 5 mM treatments, reversible case ([3]; imaged immediately after treatment): no statistically significant difference | toxicity to cells [4]: non-toxic | cell death, ECT pulses with calcium versus electroporation alone [5]: more cell death | cellular ATP, ECT pulses with calcium versus electroporation alone [5]: greater decrease | lesion area for IRE or ECT treatment when CaCl2 is added [6]: greatly increased | cell swelling and mode of cell death [7]: experienced necrosis | reduction of electric field threshold compared to NaCl control ([8]; 1 mM, 1-1-1 waveform): 1.24 × | reduction of electric field threshold compared to NaCl control ([8]; 1 mM, 2-1-2 waveform): 1.48 × | reduction of electric field threshold compared to NaCl control ([8]; 1 mM, 2-2-2 waveform): 1.5 × | reduction of electric field threshold compared to NaCl control ([8]; 1 mM, 5-1-5 waveform): 2.05 × | reduction of electric field threshold compared to NaCl control ([8]; 1 mM, 5-5-5 waveform): 2.1 × | reduction of electric field threshold compared to NaCl control ([8]; 1 mM, 10-1-10 waveform): 2.2 × and 2.19 × | reduction of electric field threshold, 5 mM NaCl to 5 mM CaCl2 ([8]; 1-1-1 waveform): 1.46 × | reduction of electric field threshold, 5 mM NaCl to 5 mM CaCl2 ([8]; 2-1-2 waveform): 1.77 × and 1.91 × | reduction of electric field threshold, 5 mM NaCl to 5 mM CaCl2 ([8]; 5-1-5 waveform): 2.49 × and 2.43 × | reduction of electric field threshold, 5 mM NaCl to 5 mM CaCl2 ([8]; 10-1-10 waveform): 1.92 × and 1.83 × | electric field threshold ([8]; H-FIRE 10-1-10 waveform with calcium, concentration not given): 784±107 V/cm | electric field threshold ([8]; H-FIRE 10-1-10 waveform, 1 mM): 771±129 V/cm | electric field threshold ([8]; IRE treatment): 467±67 V/cm

[Cl-].[Na+] [NaCl, sodium chloride, reference compound]
Conductivity ([1]; 1 mM solution): 0.056 ± 0.001 S/m | Osmolarity ([1]; 1 mM solution): 287 mOsm/L | Conductivity ([1]; 5 mM solution): 0.089 S/m | Osmolarity ([1]; 5 mM solution): 291 mOsm/L | visible lesion after H-FIRE ([2]; shorter pulse widths): no visible lesion | reversible areas, NaCl solutions versus CaCl2 counterparts ([3]; 1 mM and 5 mM, all waveforms): smaller reversible areas | reversible zones larger than irreversible zones ([3]; 2-1-2 waveform, 1 mM): 4.68 × | reversible zones larger than irreversible zones ([3]; 2-1-2 waveform, 5 mM): 3.88 × | reversible zones larger than irreversible zones ([3]; 5-1-5 waveform, 1 mM): 5.58 × | reversible zones larger than irreversible zones ([3]; 5-1-5 waveform, 5 mM): 3.94 × | reversible zones larger than irreversible zones ([3]; 10-1-10 waveform, 1 mM): 3.17 × | reversible zones larger than irreversible zones ([3]; 10-1-10 waveform, 5 mM): 2.94 × | difference between reversible and irreversible electroporation areas [3]: largest | electric field threshold ([8]; H-FIRE 10-1-10 waveform, 1 mM): 1641±159 V/cm | electric field threshold ([8]; IRE treatment): 698±103 V/cm

[Cl-].[K+] [KCl, potassium chloride]
Conductivity ([1]; 1 mM solution): 0.064 S/m | Osmolarity ([1]; 1 mM solution): 289 mOsm/L | ablation size relative to the NaCl control ([2]; 1 mM, H-FIRE): did not result in statistically significant ablation size
